Data on one compound can be found in US20150118222A1, “TREATMENT USING BRUTON'S TYROSINE KINASE INHIBITORS AND IMMUNOTHERAPY” (Pharmacyclics, Inc., priority 2013, published 2015).

What is called IC50 is the midpoint of a concentration-inhibition curve.

One experiment has as its system A20. As to the kind of experiment: IC50 of ibrutinib in A20 mouse lymphoma cells (FIG. 19B). The conditions noted are these: read-out: IC50 of ibrutinib, FIG. 19 Panel B. The class given is cell-based.
The test system of experiment [1] is CT26 cells.
In experiment [2] the test system is CT26 cells. Put plainly: CT26 colon cancer mouse model (Example 8). Particulars: CT26 colon carcinoma line. In kind it is in vivo, BALB/c mice.
In the next experiment the test system is 4T1-Luc cells. The conditions noted are these: 4T1, model of triple negative breast cancer.

Each structure is given as a SMILES string. Read-outs that look alike come from different tables or passages of the source.

Regarding `C=CC(=O)N1CCC[C@@H](n2nc(-c3ccc(Oc4ccccc4)cc3)c3c(N)ncnc32)C1` [ibrutinib, 1-((R)-3-(4-amino-3-(4-phenoxyphenyl)-1H-pyrazolo[3,4-d]pyrimidin-1-yl)piperidin-1-yl)prop-2-en-1-one], the IC50 in the experiment with A20 was > 10 µM. The “sensitivity of the CT26 cell line to ibrutinib” value in the experiment with CT26 cells [1] and with CT26 cells [2] was “not sensitive” each time. Moreover, in the experiment with 4T1-Luc cells, the “sensitivity of the 4T1 cell line to ibrutinib” value is reported as “not sensitive”.
